What was measured:
[1] = test system: SCN explants from PER2::Luc WT reporter mice; test: PER2::Luc reporter rhythms in SCN explants; format: cell-based, mouse; conditions: listed as NOB
Description: The chemical screen for circadian clock modulators was conducted at the Chemical Genomics Core facility at the UTHSC-H. The in-house chemical library screened consists of compounds from NIH Clinical Collection, NCI collection and Microsource Spectrum Collection. The screening was conducted largely based on the protocol previously described (Chen et al., 2012). Briefly, 15,000 immortalized fibroblast cells from Clock^Δ19/+ heterozygous mice expressing the PER2::Luc bioluminescence reporter were plated into each well of 96-well plates, and incubated for 3-4 d to allow growth to confluency. Cells were then incubated with 5 μM forskolin for 1-2 h followed by the addition of chemical compounds to the plates with robotic arms (Beckman), and then subjected to continuous monitoring over several days in a temperature-controlled EnVision microplate reader (Perkin Elmer). Data analysis was carried out by using the MultiCycle software (Actimetrics) for measurement of period, phase, and amplitude. […] NOB and a structurally related analog Naringin (NAR) were re-ordered from commercial sources including Sigma and GenDEPOT and dose response validation was conducted using PER2::LucSV reporter fibroblast cells which express stronger bioluminescence signals and thus allow precise measurements of circadian clock effects of compounds (Chen et al., 2012). […]

[2] = test system: Cps1 gene; conditions: Clock^Δ19/Δ19 mutant mice; cited from earlier work
[3] = test system: Bmal1 promoter (RORE) with RORα or RORγ; test: Bmal1 promoter-driven luciferase reporter in Hepa1-6 cells; format: cell-based, mouse
Text: Plasmids containing the retinoic acid-related orphan receptor response element (RORE) from mouse Bmal1 promoter, pcDNA3.1B-G4DBD-RORαLBD and pcDNA3.1BG4DBD-RORγLBD were constructed in our lab. Specifically, the 1960 bp sequences (−1830/+130) of the mouse Bmal1 promoter harboring either WT ([…] (SEQ ID NO:1) and […] (SEQ ID NO:2)) or mutant ([…] (SEQ ID NO:3)) RORE were PCR amplified from mouse genomic DNA and cloned into pGL3-promoter luciferase vector. For expression of RORα or RORγ-GAL4 protein, mouse RORα-LBD (aa 261-523) or RORγ-LBD (aa 250-516) were PCR amplified from mouse genomic DNA and cloned into a GAL4-DBD-containing vector, pcDNA3.1B.
For mammalian one-hybrid assays, HEK293T cells were cotransfected with pcDNA3.1B-G4DBD-RORα/γLBD, pGL4.31 and TK promoter Renilla luciferase construct (tK.pRL). To investigate the regulation of the Bmal1 reporter, Hepa1-6 cells were cotransfected with Bmal1-WT or mutant RORE reporter plasmids, RORα, RORγ or Rev-erbα expression construct along with tK.pRL. Mouse and human siRNA targeting RORα and RORγ were purchased from Santa Cruz. Transfection was performed by Lipfectamine 2000 reagent (Invitrogen) Twenty-four hours after transfection, the cells were treated with vehicle or NOB. Lysates were collected 24 h after treatment, and firefly and Renilla luciferase activities were measured by using a Dual-Luciferase Reporter System (Promega).

[4] = test system: core clock genes in PER2::LucSV cells; test: Real-time qPCR and Western blot of clock genes in PER2::LucSV cells; format: cell-based, mouse
Description: For qPCR analysis, cells were split into 6-well plates at an initial density of 3×10^5 cells and incubated for 2-4 days before synchronization (5 μM Fsk or 100 nM Dex) followed by compound treatment. RNA samples were prepared by using PureXtract RNAsol for cDNA synthesis and real-time PCR (GenDEPOT) was performed with a MaxPro3000 Thermocycler (Agilent). qPCR primers used are listed in the table shown in Example 4. Whole cell lysates from cells similarly grown and treated in 60 mm dishes and tissue extracts were prepared as described (Yoo et al., 2013) and subjected to Western blot analysis (GenDEPOT). Antibodies for REV-ERBα (Pierce and Cell Signaling), PER1 (Lee et al., 2001) and other clock proteins (Yoo et al., 2013) were used.

[5] = test system: clock genes and metabolic output genes in mouse liver; test: Liver gene expression in HFD-fed WT mice (qPCR, Western blot, microarray); format: in vivo
Description: For qPCR analysis, cells were split into 6-well plates at an initial density of 3×10^5 cells and incubated for 2-4 days before synchronization (5 μM Fsk or 100 nM Dex) followed by compound treatment. RNA samples were prepared by using PureXtract RNAsol for cDNA synthesis and real-time PCR (GenDEPOT) was performed with a MaxPro3000 Thermocycler (Agilent). qPCR primers used are listed in the table shown in Example 4. Whole cell lysates from cells similarly grown and treated in 60 mm dishes and tissue extracts were prepared as described (Yoo et al., 2013) and subjected to Western blot analysis (GenDEPOT). Antibodies for REV-ERBα (Pierce and Cell Signaling), PER1 (Lee et al., 2001) and other clock proteins (Yoo et al., 2013) were used. Total RNAs prepared from liver tissues from RC-fed, Vehicle-treated and HFD-fed, Vehicle or NOB-treated WT mice for 10 weeks were reverse transcribed into cDNAs, which were then biotin-UTP labeled and hybridized to the Illumina mouse WG-6v2.0 Expression BeadChip. Genes with statistically significant fold change differences was clustered using centered correlation (Cluster 3.0) and then visualized as a heat map on Tree View. Moreover, genes with statistically significant differences derived from microarray analyses were imported into the Ingenuity Pathway Analysis (IPA, http://www.ingenuity.com). In IPA, differentially expressed genes are mapped to genetic networks in the Ingenuity Knowledge Database to generate a set of network and then ranked by score. Heatmaps were generated by using Cluster 3.0 program. ChIP-seq data analysis was conducted as previously described (Koike et al., 2012). The data discussed in this publication have been deposited in NCBI's Gene Expression Omnibus (Edgar et al., 2002) and are accessible through GEO Series accession number GSE78848. To characterize the molecular basis of nobiletin action in HFD-fed WT mice, studies focused on a major metabolic organ, the liver, in which we observed a strong protection by nobiletin was observed. Specifically, total RNAs prepared from liver tissues from RC.Veh and HF.Veh or HF.nobiletin WT mice for 10 weeks were reverse transcribed into cDNAs, which were then biotin-UTP labeled and hybridized to the Illumina mouse WG-6v2.0 Expression BeadChip. The data discussed in this publication have been deposited in the National Center for Biotechnology Information's Gene Expression Omnibus (GEO) and are accessible through GEO Series accession number GSE78848. Real-time qPCR and western blotting analyses of circadian gene expression were conducted as previously described (Yoo et al., 2013). Primers used were as follows: […]

[6] = HF.nobiletin versus HF.Veh mice

Compound: COc1ccc(-c2cc(=O)c3c(OC)c(OC)c(OC)c(OC)c3o2)cc1OC [nobiletin]
- reporter rhythms in SCN explants [1]: did not enhance reporter rhythms
- transcriptional induction of the Cps1 gene [2]: impaired
- Bmal1 reporter activation with ectopic expression of REV-ERBα [3]: abolished reporter activation
- induction of Bmal1 reporter after knockdown of RORα/γ by siRNAs ([3]; Hepa1-6 cells): abrogated the nobiletin-mediated induction
- Bmal1 promoter-driven luciferase reporter activity ([3]; WT RORE, in the presence of RORα or RORγ): dose-dependently increase
- CRY1 protein abundance [4]: slight trend of greater protein abundance
- CRY1 transcript level [4]: markedly reduced transcript level
- Pert transcript levels [4]: moderately altered and reduced at CT20
- expression of other core clock genes [4]: altered
- PER2 proteins ([4]; Western blot): accumulate to greater levels
- ROR target genes (e.g., Cyp7b1, IkBa, and Gck) ([5]; DIO mouse liver, relative to control treatment): induced
- circadian clock transcript oscillations in liver [5, 6]: improved circadian clock transcript oscillations
- clock protein rhythms in liver [5, 6]: largely restored clock protein rhythms
- transcript expression of Cidec/Fsp27 in liver ([5]; HFD-fed WT mice, qPCR): reverted back to baseline levels
- expression of genes involved in gluconeogenesis and glycolysis (e.g., Pdk4 and Pkm2) ([5]; liver): altered the expression

— patent US20180296523A1, “USE OF POLYMETHOXYLATED FLAVONES TO AMELIORATE CIRCADIAN RHYTHM DISORDERS” (THE BOARD OF REGENTS OF THE UNIVERSITY OF TEXAS SY, priority 2017, published 2018)
